# In patent publication US9226501B2, “Pesticidal compositions and processes related thereto” (Dow AgroSciences LLC, priority 2012, dated 2016):
# Columns and labels:
# [1] = system: Beet Armyworm (BAW) (spodoptera exigua); assay: Bioassay on beet armyworm (BAW), 128-well diet tray assay; type: in vivo; details: for BAW Rating: Table 5, prophetic compounds subsequently exemplified, beet armyworm; for pest or weed control at 50 µg/cm2: Spodoptera exigua, 168 h, % mortality, second instar larvae, 50 μg/cm^2 on artificial diet, five to seven days, 25° C., read-out: BAW Rating
# Protocol: (§1) Certain molecules disclosed in this document were tested against BAW, CEW and CL using procedures described in the following examples. In the reporting of the results, the “BAW & CEW & CL Rating Table” was used (See Table Section).
# Bioassays on BAW were conducted using a 128-well diet tray assay. One to five second instar BAW larvae were placed in each well (3 mL) of the diet tray that had been previously filled with 1 mL of artificial diet to which 50 μg/cm^2 of the test compound (dissolved in 50 μL of 90:10 acetone-water mixture) had been applied (to each of eight wells) and then allowed to dry. Trays were covered with a clear self-adhesive cover, and held at 25° C., 14:10 light-dark for five to seven days. Percent mortality was recorded for the larvae in each well; activity in the eight wells was then averaged. The results are indicated in the tables entitled “Table 3: Assay Results Part 1” and “Table 4: Assay Results Part 2” (See Table Section).
# [2] = system: Cabbage Looper (CL) (Trichoplusia ni); assay: Bioassay on cabbage looper (CL), 128-well diet tray assay; type: in vivo; details: for CL Rating: Table 5, prophetic compounds subsequently exemplified, cabbage looper; for pest or weed control at 50 µg/cm2: Trichoplusia ni, 168 h, % mortality, second instar larvae, 50 μg/cm^2 on artificial diet, five to seven days, 25° C., read-out: CL Rating
# Protocol: as §1
# Bioassays on CL were conducted using a 128-well diet tray assay. One to five second instar CL larvae were placed in each well (3 mL) of the diet tray that had been previously filled with 1 mL of artificial diet to which 50 μg/cm^2 of the test compound (dissolved in 50 μL of 90:10 acetone-water mixture) had been applied (to each of eight wells) and then allowed to dry. Trays were covered with a clear self-adhesive cover, and held at 25° C., 14:10 light-dark for five to seven days. Percent mortality was recorded for the larvae in each well; activity in the eight wells was then averaged. The results are indicated in the table entitled “Table 4: Assay Results Part 2” (See Table Section).
SMILES,BAW Rating [1],CL Rating [2],pest or weed control at 50 µg/cm2 [1] [%],pest or weed control at 50 µg/cm2 [2] [%]
C[C@@H](NC(=O)c1ccc(/C=C/C(c2cc(Br)cc(Br)c2)C(F)(F)F)cc1Br)C(=O)NCCF (stereo partly shown) [P2041],A (50-100),A (50-100),–,–
Cc1ccc(C(/C=C/c2ccc(C(=O)N[C@H](C)C(=O)NCC(F)(F)F)c(Br)c2)C(F)(F)F)cc1Cl (stereo partly shown) [P442],A (50-100),A (50-100),–,–
COc1cc(C(=O)NCC(=O)NCC(F)(F)F)c(Cl)cc1/C=C/C(c1cc(Cl)c(Cl)c(Cl)c1)C(F)(F)F (stereo not shown) [FA5],–,–,50 to 100,50 to 100
CCC[C@@H](NC(=O)c1ccc(/C=C/C(c2cc(Cl)c(Cl)c(Cl)c2)C(F)(F)F)cc1C)C(=O)NCC(F)(F)F (stereo partly shown) [FA25],–,–,50 to 100,50 to 100
C[C@@H](NC(=O)c1ccc(/C=C/C(c2ccc(Cl)c([N+](=O)[O-])c2)C(F)(F)F)cc1Br)C(=O)NCC(F)(F)F (stereo partly shown) [P730],A (50-100),A (50-100),–,–
CCC[C@@H](NC(=O)c1ccc(/C=C/C(c2cc(Cl)c(Cl)c(Cl)c2)C(F)(F)F)cc1Br)C(=O)NCC(F)(F)F (stereo partly shown) [FA19],–,–,50 to 100,50 to 100
CC(NC(=O)c1ccc(/C=C/C(c2cc(Cl)c(Cl)c(Cl)c2)C(F)(F)F)cc1C(F)(F)F)C(=O)NCC(F)F (stereo not shown) [P1613A],A (50-100),A (50-100),–,–
C[C@@H](NC(=O)c1ccc(/C=C/C(c2cc(Br)cc(Br)c2)C(F)(F)F)cc1C(F)(F)F)C(=O)NCC(F)F (stereo partly shown) [P2038],A (50-100),A (50-100),–,–
Nc1cc(/C=C/C(c2cc(Cl)c(F)c(Cl)c2)C(F)(F)F)ccc1C(=O)NCC(=O)NCC(F)(F)F (stereo not shown) [FA6],–,–,50 to 100,50 to 100
O=C(CNC(=O)c1ccc(/C=C/C(c2cc(Cl)c(Cl)c(Cl)c2)C(F)(F)F)cc1Cl)NCC(F)F (stereo not shown) [FA1],–,–,50 to 100,50 to 100
C[C@@H](NC(=O)c1ccc(/C=C/C(c2cc(Cl)cc(Br)c2)C(F)(F)F)cc1Br)C(=O)NCC(F)(F)F (stereo partly shown) [P586],A (50-100),A (50-100),–,–
C[C@@H](NC(=O)c1ccc(/C=C/C(c2ccc(OC(F)(F)F)c(Cl)c2)C(F)(F)F)cc1Br)C(=O)NCC(F)(F)F (stereo partly shown) [FA30],–,–,50 to 100,50 to 100
C=Cc1cc(/C=C/C(c2cc(Cl)c(Cl)c(Cl)c2)C(F)(F)F)ccc1C(=O)N[C@H](C)C(=O)NCC(F)(F)F (stereo partly shown) [FA17],–,–,50 to 100,50 to 100
CCc1cc(Cl)cc(C(/C=C/c2ccc(C(=O)N[C@H](C)C(=O)NCC(F)(F)F)c(Br)c2)C(F)(F)F)c1 (stereo partly shown) [FA31],–,–,50 to 100,50 to 100
C[C@@H](NC(=O)c1ccc(/C=C/C(c2cc(Cl)c(Cl)c(Cl)c2)C(F)(F)C(F)(F)F)cc1Br)C(=O)NCC(F)(F)F (stereo partly shown) [P1599],A (50-100),A (50-100),–,–
CC(NC(=O)CNC(=O)c1ccc(/C=C/C(c2cc(Br)cc(Br)c2)C(F)(F)F)cc1Br)C(F)(F)F (stereo not shown) [P2009],A (50-100),A (50-100),–,–
C[C@@H](NC(=O)c1ccc(/C=C/C(c2ccc(Cl)c(Cl)c2)C(C)(F)F)cc1Br)C(=O)NCC(F)(F)F (stereo partly shown) [FA29],–,–,50 to 100,50 to 100
O=C(CNC(=O)c1ccc(/C=C/C(c2cc(Cl)c(F)c(Cl)c2)C(F)(F)F)cc1C(F)(F)F)NCC(F)(F)F (stereo not shown) [P1862],A (50-100),A (50-100),–,–
Cc1cc(/C=C/C(c2cc(Cl)c(Cl)c(Cl)c2)C(F)(F)F)ccc1C(=S)NCC(=O)NCC(F)(F)F (stereo not shown) [P1564],A (50-100),A (50-100),–,–

SMILES,BAW Rating [1],CL Rating [2],pest or weed control at 50 µg/cm2 [1] [%],pest or weed control at 50 µg/cm2 [2] [%]
O=C(NCC(=S)NCC(F)(F)F)c1ccc(/C=C/C(c2cc(Cl)c(F)c(Cl)c2)C(F)(F)F)cc1Br (stereo not shown) [P1864],A (50-100),A (50-100),–,–
CC(NC(=O)c1ccc(/C=C/C(c2cc(Cl)c(Cl)c(Cl)c2)C(F)(F)F)cc1Br)C(=O)NCCC(F)(F)F (stereo not shown) [P1631A],A (50-100),A (50-100),–,–
O=C(CNC(=O)c1ccc(/C=C/C(c2cc(Cl)c(Cl)c(Cl)c2)C(F)(F)F)cc1C(F)(F)F)NCC(F)F (stereo not shown) [P1566],A (50-100),A (50-100),–,–
Cc1cc(C(/C=C/c2ccc(C(=O)N[C@H](C)C(=O)NCC(F)(F)F)c(C(F)(F)F)c2)C(F)(F)F)cc(Cl)c1Cl (stereo partly shown) [FA20],–,–,50 to 100,50 to 100
CCNC(=O)[C@@H](C)NC(=O)c1ccc(/C=C/C(c2cc(Cl)c(Cl)c(Cl)c2)C(F)(F)F)cc1C (stereo partly shown) [P1624],A (50-100),A (50-100),–,–
C[C@@H](NC(=O)c1ccc(/C=C/C(c2cc(Cl)c(Br)c(Cl)c2)C(F)(F)F)cc1Br)C(=O)NCC(F)(F)F (stereo partly shown) [FA22],–,–,50 to 100,50 to 100
CC(C)(NC(=S)c1ccc(/C=C/C(c2cc(Cl)c(Cl)c(Cl)c2)C(F)(F)F)cc1Cl)C(=S)NCC(F)(F)F (stereo not shown) [FA10],–,–,0 to 50,0 to 50
CCNC(=O)[C@@H](C)NC(=O)c1ccc(/C=C/C(c2cc(Cl)c(Cl)c(Cl)c2)C(F)(F)F)cc1Br (stereo partly shown) [P1621],A (50-100),A (50-100),–,–
O=C(CNC(=O)c1ccc(/C=C/C(c2cc(Br)cc(Br)c2)C(F)(F)F)cc1C(F)(F)F)NCC(F)(F)F (stereo not shown) [P1971],A (50-100),A (50-100),–,–
C[C@@H](NC(=O)c1ccc(/C=C/C(c2cc(Cl)cc(Br)c2)C(F)(F)F)cc1C(F)(F)F)C(=O)NCC(F)(F)F (stereo partly shown) [P588],A (50-100),A (50-100),–,–
O=C(CNC(=O)c1ccc(/C=C/C(c2cc(Cl)c(Cl)c(Cl)c2)C(F)(F)F)cc1Br)NCCC(F)(F)F (stereo not shown) [FA7],–,–,50 to 100,50 to 100
O=C(CCNC(=O)c1ccc(/C=C/C(c2cc(Cl)c(Cl)c(Cl)c2)C(F)(F)F)cc1Br)NCC(F)(F)F (stereo not shown) [P1638],A (50-100),A (50-100),–,–
O=C(CNC(=O)c1ccc(/C=C/C(c2cc(F)c(F)c(F)c2)C(F)(F)F)cc1Br)NCC(F)(F)F (stereo not shown) [P1197],A (50-100),A (50-100),–,–
C[C@@H](NC(=O)c1ccc(/C=C/C(c2cc(Br)cc(Br)c2)C(F)(F)F)cc1Br)C(=O)NCC(F)F (stereo partly shown) [P2036],A (50-100),A (50-100),–,–
Cc1cc(/C=C/C(c2cc(Cl)c(Cl)c(Cl)c2)C(F)(F)F)ccc1C(=O)NCCC(=O)NCC(F)(F)F (stereo not shown) [P1641],A (50-100),A (50-100),–,–
C[C@@H](NC(=O)c1ccc(/C=C/C(c2cc(Br)cc(Br)c2)C(F)(F)F)cc1C(F)(F)F)C(=O)NCCC(F)(F)F (stereo partly shown) [P2058],A (50-100),A (50-100),–,–
O=C(NCC(=S)NCC(F)(F)F)c1ccc(/C=C/C(c2cc(Cl)c(Cl)c(Cl)c2)C(F)(F)F)cc1C(F)(F)F (stereo not shown) [P1559],A (50-100),A (50-100),–,–
C[C@@H](NC(=O)c1ccc(/C=C/C(c2cc(Cl)cc(Cl)c2)C(F)(F)C(F)(F)F)cc1Br)C(=O)NCC(F)(F)F (stereo partly shown) [P1691],A (50-100),A (50-100),–,–
CC(C)(C)CNC(=O)C(C)(C)NC(=O)c1ccc(/C=C/C(c2cc(Cl)c(Cl)c(Cl)c2)C(F)(F)F)cc1Br (stereo not shown) [FA15],–,–,50 to 100,50 to 100
